How the values were obtained:
Pgp [1] = assay: Western blotting of Pgp protein levels in BE(2)-C cells (antibody C219); type: cell-based; settings: 10 μM (FIG. 3)
Experimental: FIG. 3. depicts Western Blot showing time-dependent reduction of Pgp expression in BE(2)—C cells following 10 μM (+)pentazocine treatment.
(§1) Protein levels were monitored by Western blotting, using monoclonal antibodies specific to Pgp (e.g., C219).

Pgp mRNA = assay: RT-PCR with 32P-ATP of Pgp mRNA levels in BE(2)-C neuroblastoma cell line; type: cell-based; parameters: reduction in Pgp mRNA levels, dose dependence: dose or concentration left out as unconfirmed; settings: BE(2)-C cells
Experimental: (§2) RT-PCR was performed and [^32P]ATP was incorporated into the PCR reaction. Radioactivity was measured following gel separation of PCR product.
as §2
Tests were performed in a BE(2)—C neuroblastoma cell line. This cell line was used to test the ability of (+)pentazocine to reduce levels of Pgp mRNA and corresponding protein expression in a dose-dependent manner. Pgp levels were tested at the mRNA level by reverse-transcription polymerase chain reaction (RT-PCR) in the presence of ^32P-ATP. Incorporation of the radiolabeled nucleotide was measured following electrophoresis of the PCR product.

Pgp [2] = assay: Western blotting of Pgp protein levels in ADX cells (antibody C219); type: cell-based, Chinese hamster; settings: 10 μM (FIG. 4)
Source text: as §1

mdr-1 gene = settings: human neuroblastoma cells; cited from earlier work

SMILES | time of maximal decrease of Pgp protein levels (Pgp [1]) | decrease in Pgp mRNA (Pgp mRNA; 1 μM) | time of maximal reduction in Pgp mRNA levels post-treatment (Pgp mRNA; 10 μM (FIG. 1)) | reduction in Pgp mRNA levels, dose dependence (Pgp mRNA; concentrations (FIG. 2)) | time of maximal decrease of Pgp protein levels (Pgp [2]) | effect on expression of the mdr-1 gene (mdr-1 gene)
CC(C)=CCN1CCC2(C)c3cc(O)ccc3CC1C2C (single isomer, unassigned; (+)) [(+)pentazocine] | 12 to 18 h | two-fold decrease | 12 to 18 h | dose-dependent | 12 to 18 h | –
Br.Br.CN(CCc1ccc(Cl)c(Cl)c1)[C@H]1CCCC[C@H]1N1CCCC1 [BD 737] | – | – | – | – | – | no significant effect
